The subject of data set [1] is analgesic effects of morphine. The experiment in a line: Antagonism of morphine analgesia, tail flick test in rats. The settings on record: i.v.; lowest dose significantly antagonizing morphine in the tail flick test. A general note: In hot-plate and tail-flick tests a longer latency is read as antinociception.
The test system of a further data set is Rat. As to the kind of experiment: Ataxic gait after antagonist alone, bolus intravenous injection. The class given is in vivo. The settings on record: i.v.; only the opiate antagonist given. From the text: Only the opiate antagonist was given to study the acute side effect liability. Relative to the other compounds tested, higher doses of R N-methylnalorphine were required to produce ataxia as compared with the other compounds, with the exception of R and S N-methylnalorphine. Animals showing ataxic gait walked unsteadily with a widespread placement of the feet in a staggering manner.

A further data set has as its system morphine-induced emesis. As to the kind of experiment: Prevention of morphine-induced emesis in dogs. The settings on record: for Anti-emetic ED84 value: i.v. 5 minutes prior to morphine 0.7 mg/kg i.m., estimated dose that protects 84% of treated dogs.
For data set [2], the system named is morphine-induced constipation. As to the kind of experiment: Gastrointestinal transit of a charcoal meal in morphine-treated mice. The data set is classed as in vivo. Conditions: morphine 3 mg/kg s.c.; charcoal meal by oral gavage; transit 25 minutes after charcoal. The procedure: Animals were give R N-methylnalorphine, then morphine 15 minutes later, followed by charcoal suspended in MC. Transit was measured 25 minutes after charcoal. * p<0.05 compared to morphine-treatment.
Morphine produces constipation, especially during chronic use. R N-methylnalorphine can also be used to treat constipation. […] These mice had reduced intestinal transit times of the charcoal gavage after morphine. The reduced rate of GI transit time produced by morphine is thought to be the basis of morphine's constipating effects in mammals, including man.

The next data set relates to dogs. The experiment in a line: Emesis produced by the antagonist by itself in dogs.
Another data set concerns guinea pig ileum. Conditions: cited from earlier work.
The test system of data set [3] is cis-platinum-induced emesis. The experiment in a line: Cis-platinum-induced emesis in dogs. The class given is in vivo. Conditions: 0.5 mg/kg i.v. An excerpt: Ondasetron is used postoperatively to reduce the incidence of emesis during recovery from surgery, and to reduce nausea and vomiting of cancer patients who may be receiving chemotherapy with agents such as cis-platinum. It is not effective in all post surgical or cancer patients.

This is an account of results in patent publication US6455537B1, “Methods for treating opiate intolerance” (priority 1999, dated 2002).

Entries after “also recorded” stand apart in the source; their conditions may differ. Bounds are passed on as bounds.

Consider `C=CC[N+]1(C)CC[C@]23c4c5ccc(O)c4O[C@H]2C(=O)CC[C@@]3(O)[C@H]1C5` (stereo partly drawn) [N-methylnaloxone], for which the “Minimum Effective Dose to Antagonize Morphine Analgesia” value (shortened to “Minimum Effective Dose”) in data set [1] is 2.5 mg/kg i.v. In addition, in the data set on Rat, the “Minimum Dose to Produce Ataxic Gait In Rat” value (from here on “Minimum Dose”) was found to be 15 mg/kg i.v. Further, the “Anti-emetic ED84 value” in the data set on morphine-induced emesis was 0.18 mg/k i.v. mg/kg.
Consider `C[N@+]1(CC2CC2)CC[C@]23c4c5ccc(O)c4O[C@H]2C(=O)CC[C@@]3(O)[C@H]1C5` [N-methylnaltrexone], for which the “Minimum Effective Dose” value in data set [1] is recorded as 15 mg/kg i.v. For the same molecule, the “Minimum Dose” value in the data set with Rat is 15 mg/kg i.v. Further, in the data set with morphine-induced emesis, the “Anti-emetic ED84 value” is given as 0.25 mg/kg i.v.
Take `C=CC[N@@+]1(C)CC[C@]23c4c5ccc(O)c4O[C@H]2[C@@H](O)C=C[C@H]3[C@H]1C5` [R N-methylnalorphine, (5α,6α,17R)-7,8-didehydro-4,5-epoxy-3,6-dihydroxy-17-methyl-17-(2-propenyl)morphinanium chloride]: the “Effect on slowed gastrointestinal transit produced by morphine” value in data set [2] is listed as “reversal of the slowed transit time produced by morphine; also recorded: dose-dependent increase in gastrointestinal transit”. Moreover, the “Minimum Effective Dose” value in data set [1] worked out at 30.0 mg/kg i.v. In the data set with Rat, the “Minimum Dose” value amounted to 30 mg/kg i.v. In addition, the “Anti-emetic ED84 value” in the data set on morphine-induced emesis was 0.11 mg/kg i.v; in the data set with morphine-induced emesis (listed as compound of Formula (I)) it was 0.11 mg/kg.
Turning to `C=CC[N+]1(C)CC[C@]23c4c5ccc(O)c4O[C@H]2[C@@H](O)C=CC3[C@H]1C5` (stereo partly drawn) [S N-methylnalorphine], in the data set on dogs (0.5 mg/kg i.v., compound by itself), the “Emesis in % of animals” value is “Emesis in 12.5% of animals at 0.5”. The “Doses at which dogs demonstrated emesis” value with dogs (dog, in vivo, intravenous) was above 0.5 mg/kg. For the same molecule, in the data set with dogs (first pharmacological action), the “Animals with emesis produced by the compound by itself” value was 1 out of 8. Further, in data set [2], the “Effect on slowed gastrointestinal transit produced by morphine” value is recorded as “no effect”. In addition, the “Agonist potency weaker than antagonist activity in vitro” value with guinea pig ileum is listed as 10 fold. Besides, the Agonist properties result with guinea pig ileum (guinea pig ileum, not other tissues with mu receptors) is recorded as “very weak agonist properties”. Moreover, the “Minimum Dose” value in the data set on Rat is listed as 15 mg/kg i.v. In addition, in the data set with morphine-induced emesis (doses tested up to 0.5 mg/kg i.v., morphine 0.7 mg/kg i.m., listed as S isomer of N-methylnalorphine), the “Block of morphine-induced emesis” value is reported as “not active”.
As to `Cc1nccn1CC1CCc2c(c3ccccc3n2C)C1=O` (stereo not drawn) [ondansetron], in data set [3], the “Protection from cis-platinum-induced emesis” value is reported as “completely protects”. In addition, the “Protection from the emetic effects of morphine” value with morphine-induced emesis (0.5 mg/kg i.v., morphine 0.7mg/kg i.m.) is “failed to protect any dogs”.
